Laboratory results from a melting point compilation (Tetko et al.; mined from patent text by program, amines drawn as free bases though some values may be those of a salt).

melting point	Structure (SMILES)
60 to 63 °C	CCc1ccc(-c2ccc(F)cc2)cc1
105 to 110 °C	COc1cc2c3c4c(c(-c5ccccc5)cc3n(C)c2cc1CCCO)C(=O)NC4=O
125 to 135 °C	O=[N+]([O-])c1ccc(C=C/C=C/c2ccc(Cl)c(Cl)c2)cc1
108 °C	CCCc1nc(SC(F)F)c(C(=O)O)n1Cc1ccc(-c2ccccc2S(=O)(=O)NC(=O)NCCCc2ccccc2)cc1
119 to 123 °C	O=C1C=C2CN(C(C(=O)C3CC3)c3ccccc3Cl)CCC2S1 (configuration not stated)
175 to 178 °C	O=C(CBr)Nc1ccc([N+](=O)[O-])cc1
172 to 173 °C	N#Cc1ccc2c(c1)nc(/C=C/c1ccccc1)n2-c1ccccn1
156 to 158 °C	CC[C@H](C1CC1)n1cc(Cl)nc(N2CCc3cc(OC)cc(C)c32)c1=O
132 to 136 °C	CCCCOC(=O)COc1ccc(C(=O)Nc2cccc(Cl)c2Cl)cc1
62 to 64 °C	C=CCSCCON=C(C(=O)OCC)c1csc(NC=O)n1
180 to 182 °C	CCC(=O)c1cc(C(=O)O)c(=O)[nH]c1CC
88.5 to 90 °C	O[C@H]1c2ccccc2C=C[C@@H]1OC(C(F)(F)F)C(F)(F)F
139 to 140 °C	CCOC(=O)c1nn(C(=O)Nc2ccccc2)c(C)c1C
208 to 209 °C	Nc1ncc(-c2cccc(Nc3ccc(-c4ccoc4)cc3N)c2)cn1
148 to 150 °C	Cc1cccc(-c2ccc(O)cc2C=O)c1
213 to 215 °C	CCCN=C(N)Nc1ccnc(CCCCc2ncc(C)c(O)n2)n1
242 to 243 °C	Sc1nccn1Cc1c(Cl)cccc1Cl
173 °C	O=[N+]([O-])c1cccc(Nc2nc(Cl)nc(Cl)n2)c1
231 to 234 °C	CCN(CC)CCNc1ccc2c3c(nn2CCO)-c2c(O)ccc(O)c2C(=O)c13
80 to 82 °C	Cc1c(C)c(N(C)C(=O)CC(C)(C)C)c(C)c2c1OCC2c1ccc(C(C)C)cc1 (configuration not stated)
173 to 174 °C	CCC(=CC#N)c1ccc2c(c1)C1(CCCCC1)OC(=O)N2

melting point	Structure (SMILES)
150 to 156 °C	CCc1nn(C2CN(C(C)C)C2)c(C(N)=O)c1N
184 °C	COC(=O)c1ccccc1S(=O)(=O)NC(=O)n1nc(SC)n(C)c1=O
36 to 37 °C	CC(=O)OCc1c(Br)cccc1[N+](=O)[O-]
133 °C	CCS(=O)(=O)c1ccc2c(c1)nc(CC(C)(C)C)n2CCOC(F)(F)F
52 °C	COc1ccc(C=O)cc1C(C)(C)C
188 to 190 °C	O=C1c2cc(O)ccc2OCC1Cc1c[nH]c2ccccc12 (configuration not stated)
128 to 129 °C	CC(C)(C)OC(=O)NNC(=O)c1ccc2ncsc2c1
318 °C	COc1ccc(-c2nc(O)cc(O)n2)cc1
226 to 230 °C	CNS(=O)(=O)c1ccc(-c2c(Cl)nc(C(F)(F)F)nc2-c2ccc(S(C)(=O)=O)cc2)cc1
181 to 182 °C	Cc1cc(O)c(C(=O)CCC(=O)O)cc1Cl
155 to 156 °C	Cc1c(SCCCSc2ccc3ncc([N+](=O)[O-])n3n2)ccnc1CCl
117 to 119 °C	CC(C)C(=O)NC(C)(C)C
144 to 146 °C	CCOC(=O)C1=C(C(F)(F)F)Nc2n[nH]cc2C1c1ccccc1OC (configuration not stated)
254 to 257 °C	CN(C)C=NC(=O)c1cc2c(cn1)[nH]c1ccccc12
191 to 195 °C	CCCC(NS(=O)(=O)c1ccc(Cl)cc1)C(=O)NNC(=S)NC (configuration not stated)
255 to 260 °C	O=C(O)c1cncc(-c2cnc3c(c2)N(Cc2cc(F)ccc2F)CCN3)c1
243 to 245 °C	CCCCCc1cc2c(nc(O)n2Cc2cccnc2)c(N)n1
223 to 224 °C	CCCCOc1c(CNC(=O)OC(C)(C)C)n(CC(C)C)c(=O)c2ccc(-c3noc(=O)[nH]3)cc12
140 °C	OC(c1ccccc1)(C1CC1)C(c1cccc(Cl)c1)n1ccnc1 (configuration not stated)
207 to 209 °C	O=S1(=O)N=CN(C2CC2)c2cccc(Cl)c21

Structure (SMILES)	melting point
O=C(Nc1cnc2c(c1)nc1n2CCC1O)c1cc2cc(F)ccc2n1Cc1cccc(F)c1 (configuration not stated)	288 to 290 °C
